# Experimental data from PubChem BioAssay AID1745844 (Carcinogenic Potency Database (CPDB), 2022).
# Active and inactive are the calls of the source. The rule behind the calls is not given here.
# Tested on: rodent lifetime carcinogenesis bioassay, tumor incidence TD50
# Assay: chronic cancer bioassays in animals – CPDB, compiled studies (AID 1745844)
smiles,measurement,setting,value
c1ccoc1,TD50,"mouse, strain B6C3F1, females, by gavage, site: adrenal medulla + liver, lesion: pheochromocytoma, benign + hepatocellular adenoma + hepatocellular carcinoma, dosed 104 weeks, study length 105 weeks",2.26 mg/kg/day
same,TD50,"mouse, strain B6C3F1, females, by gavage, site: adrenal medulla, lesion: pheochromocytoma, benign, dosed 104 weeks, study length 105 weeks",36 mg/kg/day
same,TD50,"mouse, strain B6C3F1, females, by gavage, site: any site (literature study), lesion: several types, types named in the paper, dosed 104 weeks, study length 105 weeks",2.81 mg/kg/day
same,TD50,"mouse, strain B6C3F1, females, by gavage, site: forestomach, lesion: squamous-cell papilloma, dosed 104 weeks, study length 105 weeks",23.8 mg/kg/day
same,TD50,"mouse, strain B6C3F1, females, by gavage, site: liver, lesion: carcinoma + hepatocellular carcinoma, dosed 104 weeks, study length 105 weeks",6.85 mg/kg/day
same,TD50,"mouse, strain B6C3F1, females, by gavage, site: liver, lesion: hepatocellular adenoma + hepatocellular carcinoma + neoplastic nodule, dosed 104 weeks, study length 105 weeks",2.19 mg/kg/day
same,TD50,"mouse, strain B6C3F1, females, by gavage, site: liver, lesion: hepatocellular adenoma + hepatocellular carcinoma, dosed 104 weeks, study length 105 weeks",2.19 mg/kg/day
same,TD50,"mouse, strain B6C3F1, females, by gavage, site: liver, lesion: hepatocellular adenoma, dosed 104 weeks, study length 105 weeks",2.26 mg/kg/day
same,TD50,"mouse, strain B6C3F1, females, by gavage, site: lung, lesion: alveolar/bronchiolar adenoma + alveolar/bronchiolar carcinoma, dosed 104 weeks, study length 105 weeks",38.5 mg/kg/day
same,TD50,"mouse, strain B6C3F1, males, by gavage, site: adrenal medulla + liver, lesion: pheochromocytoma, benign + hepatocellular adenoma + hepatocellular carcinoma, dosed 104 weeks, study length 105 weeks",3.6 mg/kg/day
same,TD50,"mouse, strain B6C3F1, males, by gavage, site: adrenal medulla, lesion: pheochromocytoma, benign, dosed 104 weeks, study length 105 weeks",20.1 mg/kg/day
same,TD50,"mouse, strain B6C3F1, males, by gavage, site: any site (literature study), lesion: several types, types named in the paper, dosed 104 weeks, study length 105 weeks",5.43 mg/kg/day
same,TD50,"mouse, strain B6C3F1, males, by gavage, site: forestomach, lesion: squamous-cell papilloma, dosed 104 weeks, study length 105 weeks",64.6 mg/kg/day
same,TD50,"mouse, strain B6C3F1, males, by gavage, site: liver, lesion: hepatocellular adenoma + hepatocellular carcinoma + neoplastic nodule, dosed 104 weeks, study length 105 weeks",3.6 mg/kg/day
same,TD50,"mouse, strain B6C3F1, males, by gavage, site: liver, lesion: hepatocellular adenoma + hepatocellular carcinoma, dosed 104 weeks, study length 105 weeks",3.6 mg/kg/day
same,TD50,"mouse, strain B6C3F1, males, by gavage, site: liver, lesion: hepatocellular adenoma, dosed 104 weeks, study length 105 weeks",4.02 mg/kg/day
same,TD50,"mouse, strain B6C3F1, males, by gavage, site: liver, lesion: hepatocellular carcinoma, dosed 104 weeks, study length 105 weeks",5.13 mg/kg/day
same,TD50,"mouse, strain B6C3F1, males, by gavage, site: lung, lesion: alveolar/bronchiolar adenoma + alveolar/bronchiolar carcinoma, dosed 104 weeks, study length 105 weeks",21.5 mg/kg/day
same,TD50,"mouse, strain B6C3F1, males, by gavage, site: lung, lesion: alveolar/bronchiolar adenoma, dosed 104 weeks, study length 105 weeks",18.2 mg/kg/day
same,TD50,"mouse, strain B6C3F1, males, by gavage, site: multiple organs, lesion: malignant lymphoma, histiocytic type + malignant lymphoma, mixed type, dosed 104 weeks, study length 105 weeks",11 mg/kg/day
same,TD50,"rat, strain Fischer 344, females, by gavage, site: any site (literature study), lesion: several types, types named in the paper, dosed 103 weeks, study length 104 weeks",2.83 mg/kg/day
same,TD50,"rat, strain Fischer 344, females, by gavage, site: liver + multiple organs, lesion: cholangiocarcinoma + hepatocellular adenoma + hepatocellular carcinoma + mononuclear-cell leukemia, dosed 103 weeks, study length 104 weeks",0.543 mg/kg/day
same,TD50,"rat, strain Fischer 344, females, by gavage, site: liver, lesion: cholangiocarcinoma, dosed 103 weeks, study length 104 weeks",0.395 mg/kg/day
same,TD50,"rat, strain Fischer 344, females, by gavage, site: liver, lesion: hepatocellular adenoma + hepatocellular carcinoma + neoplastic nodule, dosed 103 weeks, study length 104 weeks",11.2 mg/kg/day
same,TD50,"rat, strain Fischer 344, females, by gavage, site: liver, lesion: hepatocellular adenoma + hepatocellular carcinoma, dosed 103 weeks, study length 104 weeks",11.2 mg/kg/day
same,TD50,"rat, strain Fischer 344, females, by gavage, site: liver, lesion: hepatocellular adenoma, dosed 103 weeks, study length 104 weeks",11.8 mg/kg/day
same,TD50,"rat, strain Fischer 344, females, by gavage, site: multiple organs, lesion: mononuclear-cell leukemia, dosed 103 weeks, study length 104 weeks",5.84 mg/kg/day
same,TD50,"rat, strain Fischer 344, females, by gavage, site: urinary bladder, lesion: transitional-cell papilloma, dosed 103 weeks, study length 104 weeks",50.7 mg/kg/day
same,TD50,"rat, strain Fischer 344, males, by gavage, site: adrenal medulla, lesion: pheochromocytoma, benign, dosed 103 weeks, study length 104 weeks",12.7 mg/kg/day
same,TD50,"rat, strain Fischer 344, males, by gavage, site: any site (literature study), lesion: several types, types named in the paper, dosed 103 weeks, study length 104 weeks",1.96 mg/kg/day
same,TD50,"rat, strain Fischer 344, males, by gavage, site: liver + multiple organs, lesion: cholangiocarcinoma + hepatocellular adenoma + hepatocellular carcinoma + mononuclear-cell leukemia, dosed 103 weeks, study length 104 weeks",0.529 mg/kg/day
same,TD50,"rat, strain Fischer 344, males, by gavage, site: liver, lesion: cholangiocarcinoma, dosed 103 weeks, study length 104 weeks",0.398 mg/kg/day
same,TD50,"rat, strain Fischer 344, males, by gavage, site: liver, lesion: hepatocellular adenoma + hepatocellular carcinoma + neoplastic nodule, dosed 103 weeks, study length 104 weeks",2.31 mg/kg/day
same,TD50,"rat, strain Fischer 344, males, by gavage, site: liver, lesion: hepatocellular adenoma + hepatocellular carcinoma, dosed 103 weeks, study length 104 weeks",2.31 mg/kg/day
same,TD50,"rat, strain Fischer 344, males, by gavage, site: liver, lesion: hepatocellular adenoma, dosed 103 weeks, study length 104 weeks",3.1 mg/kg/day
same,TD50,"rat, strain Fischer 344, males, by gavage, site: liver, lesion: hepatocellular carcinoma, dosed 103 weeks, study length 104 weeks",6.18 mg/kg/day
same,TD50,"rat, strain Fischer 344, males, by gavage, site: multiple organs, lesion: mononuclear-cell leukemia, dosed 103 weeks, study length 104 weeks",4.64 mg/kg/day
same,TD50,"rat, strain Fischer 344, males, by gavage, site: preputial gland, lesion: adenoma + adenoma, bilateral, dosed 103 weeks, study length 104 weeks",21.5 mg/kg/day
same,TD50,"rat, strain Fischer 344, males, by gavage, site: skin, lesion: keratoacanthoma, dosed 103 weeks, study length 104 weeks",16.4 mg/kg/day
same,TD50,"rat, strain Fischer 344, males, by gavage, site: subcutaneous tissue, lesion: fibroma, dosed 103 weeks, study length 104 weeks",18.1 mg/kg/day
same,TD50,"rat, strain Fischer 344, males, by gavage, site: testis, lesion: interstitial-cell adenoma, dosed 103 weeks, study length 104 weeks",3.14 mg/kg/day
OC[C@@H](O)[C@H]1O[C@@H]2O[C@H](C(Cl)(Cl)Cl)O[C@@H]2[C@H]1O,TD50,"mouse, strain B6AKF1, females, oral dosing, site: any site (literature study), lesion: several types, types named in the paper, dosed 76 weeks, study length 76 weeks",17.3 mg/kg/day (inactive)
same,carcinogen call,"mouse, strain B6AKF1, females, oral dosing, site: liver, lesion: hepatoma, dosed 76 weeks, study length 76 weeks",negative (inactive)
same,TD50,"mouse, strain B6AKF1, females, oral dosing, site: lung, lesion: adenoma, dosed 76 weeks, study length 76 weeks",19.5 mg/kg/day (inactive)
same,carcinogen call,"mouse, strain B6AKF1, males, oral dosing, site: any site (literature study), lesion: several types, types named in the paper, dosed 76 weeks, study length 76 weeks",negative (inactive)
same,carcinogen call,"mouse, strain B6AKF1, males, oral dosing, site: liver, lesion: hepatoma, dosed 76 weeks, study length 76 weeks",negative (inactive)
same,carcinogen call,"mouse, strain B6AKF1, males, oral dosing, site: lung, lesion: adenoma, dosed 76 weeks, study length 76 weeks",negative (inactive)
same,carcinogen call,"mouse, strain B6C3F1, females, oral dosing, site: any site (literature study), lesion: one or several types, types not named, dosed 76 weeks, study length 76 weeks",negative (inactive)
same,carcinogen call,"mouse, strain B6C3F1, females, oral dosing, site: liver, lesion: hepatoma, dosed 76 weeks, study length 76 weeks",negative (inactive)
same,carcinogen call,"mouse, strain B6C3F1, females, oral dosing, site: lung, lesion: several types, types named in the paper, dosed 76 weeks, study length 76 weeks",negative (inactive)
same,TD50,"mouse, strain B6C3F1, males, oral dosing, site: any site (literature study), lesion: several types, types named in the paper, dosed 76 weeks, study length 76 weeks",4.07 mg/kg/day (inactive)
same,TD50,"mouse, strain B6C3F1, males, oral dosing, site: liver, lesion: hepatoma, dosed 76 weeks, study length 76 weeks",7.27 mg/kg/day (inactive)
same,TD50,"mouse, strain B6C3F1, males, oral dosing, site: lung, lesion: adenoma, dosed 76 weeks, study length 76 weeks",11.2 mg/kg/day (inactive)
COc1cc(OC)c2c3c(c(=O)oc2c1)CCC3,carcinogen call,"rat, strain Fischer, males, by gavage, site: liver, lesion: one or several types, types not named, dosed 52 weeks, study length 87 weeks",negative (inactive)
CCCCCCCCCc1ccc(OCCO)cc1,TD50,"mouse, strain B6C3F1, females, in feed, site: liver, lesion: hepatocellular adenoma, dosed 104 weeks, study length 104 weeks",8670 mg/kg/day (inactive)
same,carcinogen call,"mouse, strain B6C3F1, females, in feed, site: liver, lesion: hepatocellular carcinoma, dosed 104 weeks, study length 104 weeks",negative (inactive)
same,carcinogen call,"rat, strain F344/DuCrj, females, in feed, site: liver, lesion: hepatocellular adenoma, dosed 104 weeks, study length 104 weeks",negative (inactive)
same,carcinogen call,"rat, strain F344/DuCrj, females, in feed, site: liver, lesion: one or several types, types not named, dosed 52 weeks, study length 52 weeks",negative (inactive)
Cc1c([N+](=O)[O-])c(C)c([N+](=O)[O-])c(C(C)(C)C)c1[N+](=O)[O-],TD50,"mouse, strain B6C3F1, females, in feed, site: Harderian gland, lesion: several types, types named in the paper, dosed 80 weeks, study length 90 weeks",2250 mg/kg/day
same,TD50,"mouse, strain B6C3F1, females, in feed, site: all sites, lesion: lymphoma, dosed 80 weeks, study length 90 weeks",1300 mg/kg/day
same,TD50,"mouse, strain B6C3F1, females, in feed, site: any site (literature study), lesion: malignant tumor, dosed 80 weeks, study length 90 weeks",418 mg/kg/day
same,TD50,"mouse, strain B6C3F1, females, in feed, site: liver, lesion: hepatocellular adenoma, dosed 80 weeks, study length 90 weeks",234 mg/kg/day
same,TD50,"mouse, strain B6C3F1, females, in feed, site: liver, lesion: hepatocellular carcinoma, dosed 80 weeks, study length 90 weeks",2190 mg/kg/day
same,TD50,"mouse, strain B6C3F1, females, in feed, site: liver, lesion: several types, types named in the paper, dosed 80 weeks, study length 90 weeks",203 mg/kg/day
same,TD50,"mouse, strain B6C3F1, females, in feed, site: lung, lesion: adenoma, dosed 80 weeks, study length 90 weeks",1630 mg/kg/day
same,TD50,"mouse, strain B6C3F1, females, in feed, site: lung, lesion: carcinoma, dosed 80 weeks, study length 90 weeks",6650 mg/kg/day
same,TD50,"mouse, strain B6C3F1, females, in feed, site: lung, lesion: several types, types named in the paper, dosed 80 weeks, study length 90 weeks",1300 mg/kg/day
same,TD50,"mouse, strain B6C3F1, females, in feed, site: uterus, lesion: endometrial stromal sarcoma, dosed 80 weeks, study length 90 weeks",533 mg/kg/day
same,TD50,"mouse, strain B6C3F1, males, in feed, site: Harderian gland, lesion: adenoma, dosed 80 weeks, study length 90 weeks",383 mg/kg/day
same,TD50,"mouse, strain B6C3F1, males, in feed, site: Harderian gland, lesion: several types, types named in the paper, dosed 80 weeks, study length 90 weeks",425 mg/kg/day
same,TD50,"mouse, strain B6C3F1, males, in feed, site: any site (literature study), lesion: malignant tumor, dosed 80 weeks, study length 90 weeks",334 mg/kg/day
same,TD50,"mouse, strain B6C3F1, males, in feed, site: liver, lesion: hepatocellular adenoma, dosed 80 weeks, study length 90 weeks",232 mg/kg/day
same,TD50,"mouse, strain B6C3F1, males, in feed, site: liver, lesion: hepatocellular carcinoma, dosed 80 weeks, study length 90 weeks",313 mg/kg/day
same,TD50,"mouse, strain B6C3F1, males, in feed, site: liver, lesion: several types, types named in the paper, dosed 80 weeks, study length 90 weeks",92.1 mg/kg/day
same,TD50,"mouse, strain B6C3F1, males, in feed, site: lung, lesion: adenoma, dosed 80 weeks, study length 90 weeks",1200 mg/kg/day
COc1ccc(C(Cl)=C(c2ccc(OC)cc2)c2ccc(OC)cc2)cc1,carcinogen call,"rat, strain Charles River CD (Sprague-Dawley), females, in feed, site: liver, lesion: one or several types, types not named, dosed 104 weeks, study length 104 weeks",negative (inactive)
same,carcinogen call,"rat, strain Charles River CD (Sprague-Dawley), males, in feed, site: liver, lesion: one or several types, types not named, dosed 104 weeks, study length 104 weeks",negative (inactive)
